Assay results as given in the METLIN SMRT retention time set (Domingo-Almenara et al. 2019).

Assay: gradient 5% acetonitrile 3 min, to 50% in 2 min, to 85% in 15 min, held 3 min, 100 µL/min
Settings: column: Zorbax Extend-C18 2.1 x 50 mm; eluents: water / acetonitrile, 0.1% formic acid
Method in brief: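 In both positive and negative ionization mode, a quadrupole time-of-flight mass spectrometer coupled to HPLC analyzed pure standards run in mixtures of ~100 molecules. The Zorbax Extend-C18 column (2.1 × 50 mm, 1.8 μm) was operated at 100 μL/min with water and acetonitrile, each containing 0.1% formic acid. The dead volume was 40 μL and the dwell volume 900 μL. Retention time came from adduct peaks that were computationally picked and individually inspected by hand.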

COc1ccc(CN2C(=O)[C@H](OC)[C@@H]2C2=CCNCC2)cc1
RP-LC retention time: 576 s

CN(CCc1noc(COc2cccc(C(F)(F)F)c2)n1)C(=O)c1ccco1
RP-LC retention time: 919 s

COc1ccc(CCNC(=O)Nc2nnc(-c3ccc(F)cc3F)o2)cc1
RP-LC retention time: 788 s

CCOc1ccc(CCNC(=O)C2CCCN(S(=O)(=O)N3CCC(C)CC3)C2)cc1 (stereo not drawn)
RP-LC retention time: 1010 s

O=C(CN1CCN(C(=O)Nc2ccc(Cl)cc2)CC1=O)NCc1ccco1
RP-LC retention time: 685 s

Cc1cc(-c2nnc(C3CC3)o2)c(C)n1CC(=O)NCc1ccc(F)cc1F
RP-LC retention time: 811 s

Cc1cccc(-c2nnc(-c3ccc(Cl)c(S(=O)(=O)N(C)C)c3)o2)c1
RP-LC retention time: 1040 s

O=S(=O)(c1ccc(F)c(Cl)c1)N1CCc2nc(-c3ccccc3)ncc2C1
RP-LC retention time: 1130 s

CCOc1ccc2nc(NC(=O)Cc3csc4nc(-c5ccc(C)c(C)c5)cn34)sc2c1
RP-LC retention time: 980 s

CSc1cccc(NC(=O)N2CCC(C)(C(=O)NCc3ccccc3)CC2)c1
RP-LC retention time: 852 s

COc1ccccc1N1CCN(Cc2nc(-c3ccc(N4CCC(C)CC4)nc3)no2)CC1
RP-LC retention time: 882 s

Cc1cccc2c(C(=O)NC3CC3)cc(N3CCCC3)nc12
RP-LC retention time: 593 s

Cc1ccc(C(=O)Nc2ccc(CN3CCN(C)CC3)c(C(F)(F)F)c2)cc1C#Cc1cnc2cccnn12
RP-LC retention time: 812 s

O=C(c1ccoc1)N1CCC2(CC1)N=C(c1cccc(Br)c1)NO2
RP-LC retention time: 763 s

Cc1ccc(C(=O)NCCc2nc3cccnc3n2C)c(C)c1
RP-LC retention time: 623 s

Cc1nc(-c2cccs2)c(CCC(=O)Nc2ccccc2C(F)(F)F)s1
RP-LC retention time: 923 s

CCN1CCN(CCCNc2nc(-c3ccc(Cl)cc3)nc3ccccc23)CC1
RP-LC retention time: 577 s

O=S(=O)(c1cccc(Cl)c1)N1CC(F)(F)C[C@H]1CN1CCc2ccccc2C1
RP-LC retention time: 788 s

COC(=O)c1cccc(-c2nc(-c3nnn(Cc4ccccc4)c3C)no2)c1
RP-LC retention time: 1010 s

FC(F)(F)c1cnc(N2CCN(Cc3ccccc3)CC2)c(Cl)c1
RP-LC retention time: 717 s

O=C(NC1CCN(c2cc(-c3ccc(Cl)cc3)[nH]n2)C1)c1cccc(F)c1 (stereo not drawn)
RP-LC retention time: 721 s

COc1ccccc1CNC(=O)[C@@H]1[C@H](c2cc(OC)c(OC)c(OC)c2)c2cc3c(cc2[C@H](O)[C@H]1CO)OCO3
RP-LC retention time: 713 s

CCCN1C(=O)COc2ccc(-c3noc(C(C)NC(=O)c4ccccc4)n3)cc21 (stereo not drawn)
RP-LC retention time: 900 s

Cc1nc(Cn2cccc2C(=O)NC2CCCCCC2)no1
RP-LC retention time: 879 s

COc1cccc(-c2n[nH]c3c2C(c2ccc(O)cc2)N(C)C3=O)c1 (stereo not drawn)
RP-LC retention time: 693 s

CC(C)CNC(=O)CCc1nc2ccccc2n(CC(=O)NCc2ccc(F)cc2)c1=O
RP-LC retention time: 783 s

O=C1Nc2ccccc2OC1C(=O)N1CCN(c2ccc(Cl)cc2)CC1 (stereo not drawn)
RP-LC retention time: 889 s

O=C(c1cccc(-c2nccnc2N2CCCC2)c1)N1CCN(c2ccccc2)CC1
RP-LC retention time: 972 s

COc1cccc(N2CCN(C(=O)Cn3ccc4c(SCc5ccc(F)cc5)nccc43)CC2)c1
RP-LC retention time: 795 s

Cc1ccccc1CNC(=O)C1CCN(S(=O)(=O)c2cc(C(=O)N3CCCC3)n(C)c2)CC1
RP-LC retention time: 738 s

CCc1noc(NC(C)=O)c1-c1ccc(OC)c(S(=O)(=O)Nc2ccccc2F)c1
RP-LC retention time: 763 s

CCN1CCN(c2cc(C(=O)O)c3cc(NS(=O)(=O)c4cccc(C)c4)ccc3n2)CC1
RP-LC retention time: 596 s

O=C(NCc1ccc(F)cc1Cl)c1sc2ncccc2c1-n1cccc1
RP-LC retention time: 1060 s

CCOc1cc(C(=O)NC(C(=O)Nc2nc3ccccc3[nH]2)C(C)CC)cc(OCC)c1OCC (stereo not drawn)
RP-LC retention time: 854 s

Cc1ccc(C(=O)NCCc2ncc(C)n2C2CCC2)s1
RP-LC retention time: 564 s

COc1ccccc1NC(=O)NC(C)(C)CC(C)(C)C
RP-LC retention time: 1010 s

CCCS(=O)(=O)Nc1cccc(-c2cn3ccc(C)cc3n2)c1
RP-LC retention time: 614 s

CCOc1ccc(-n2cc(C(=O)OCC(=O)OC(C)(C)C)c3ccccc3c2=O)cc1
RP-LC retention time: 1220 s

Cc1sc2ccn(Cc3ccc(F)cc3)c(=O)c2c1C(=O)NC1CCCC1
RP-LC retention time: 919 s

COc1ccc(NC(=O)C2CCCN2S(=O)(=O)c2cc3c(cc2C)NC(=O)C(C)O3)cc1Cl (stereo not drawn)
RP-LC retention time: 824 s

Cn1nc(C(=O)NCc2cc(-c3cccs3)on2)ccc1=O
RP-LC retention time: 650 s

O=S(=O)(Nc1ccc(F)cc1)c1cccnc1Nc1cccc(F)c1
RP-LC retention time: 1060 s

COc1ccc2nc([S@](=O)Cc3ncc(C)c(OC)c3C)[nH]c2c1
RP-LC retention time: 664 s

CC(C)c1ccc(NC(=O)Cn2nc3n(c2=O)CCCCC3)cc1
RP-LC retention time: 779 s

Cc1nn(C)c(C)c1C(=O)N1CCC2(CCC2O)CC1 (stereo not drawn)
RP-LC retention time: 600 s

CCCNC(=O)CC1CCN(C(=O)c2[nH]c(C)c(C(=O)OCC)c2C)CC1
RP-LC retention time: 683 s

Cc1ccc(NC(=O)CN2C(=O)C3CCCCN3c3ccc(S(=O)(=O)N(C)C)cc32)cc1 (stereo not drawn)
RP-LC retention time: 943 s

Cc1cc(CN2CCC(CNC(=O)Cc3ccccc3Cl)CC2)c(C)o1
RP-LC retention time: 583 s

C[C@@H]1CCC2(NC1)O[C@H]1C[C@H]3[C@@H]4CC=C5C[C@@H](O)CC[C@]5(C)[C@H]4CC[C@]3(C)[C@H]1[C@H]2C (stereo partly drawn)
RP-LC retention time: 757 s

CCc1ccc(S(=O)(=O)N2CCC3(CC2)NCCN=C3NCc2ccc(F)c(Cl)c2)cc1
RP-LC retention time: 831 s

CCOc1ccccc1NC(=O)Cn1nc2cc(-c3ccc(OC)cc3)nc(C)n2c1=O
RP-LC retention time: 1020 s

CCn1c(C(=O)NCCCN2CCCCC2)c(N2CCCC2=O)c2cc(F)ccc21
RP-LC retention time: 647 s

CCOC(=O)C1CCCN(S(=O)(=O)c2cccs2)C1 (stereo not drawn)
RP-LC retention time: 830 s

CCCn1c(=O)c2cc(C(=O)NCc3ccc(C)cc3)nn2c2ccccc21
RP-LC retention time: 1030 s

Cc1nc2cccnc2n1CCN1CCN(C(=O)Nc2cccc(Br)c2)CC1
RP-LC retention time: 607 s

COc1cc(NC(=O)Cn2c(=O)n(C3CCCCC3)c3ncccc32)cc(OC)c1
RP-LC retention time: 954 s

O=C(NCc1ccccn1)C(=O)Nc1nccs1
RP-LC retention time: 527 s

COc1ccc(NC(=O)c2sc(-c3cn(C(C)C)c4ncccc34)nc2C)cc1
RP-LC retention time: 902 s

Cc1ccc(C2Cn3cnc(C(=O)N4CCC(C(=O)NCc5ccccc5Cl)CC4)c3CO2)cc1 (stereo not drawn)
RP-LC retention time: 823 s

CCn1c(=O)c2c(cc(C)n2C)n(CC(=O)Nc2ccccc2C)c1=O
RP-LC retention time: 776 s

Cc1ccc(F)cc1S(=O)(=O)N1CCc2c(c(-c3nnc(-c4ccccc4)o3)nn2C)C1
RP-LC retention time: 846 s

O=S(=O)(c1ccc(-c2nnc(C3CC3)o2)o1)N1CCCCCC1
RP-LC retention time: 898 s

COc1ccc(NC(=O)CSc2nnc3c4cc(-c5ccc(F)cc5)nn4ccn23)c(OC)c1
RP-LC retention time: 648 s

CCC1CCCCN1CCCNC(=O)C1CCN(c2ncnc3onc(C)c23)CC1 (stereo not drawn)
RP-LC retention time: 579 s

O=C(Cn1nc2n(c1=O)CCCC2)Nc1ccc(Cl)cc1
RP-LC retention time: 688 s

COCC(=O)N(CC(=O)N1CCc2sccc2C1COc1ccc(C)cc1)C(C)C (stereo not drawn)
RP-LC retention time: 867 s

O=C(NCc1ccc2c(c1)OCO2)C1CCN(c2ccc(SCc3ccccc3)nn2)CC1
RP-LC retention time: 742 s

COc1ccc(-c2csc3c(=O)n(CC(=O)OC(C)(C)C)cnc23)cc1
RP-LC retention time: 1180 s

C[C@H]1CN(C(=O)c2cc(F)cc(F)c2)C[C@@H]1c1nc(-c2ccncc2)no1
RP-LC retention time: 781 s

CCN1CCCn2cc(S(=O)(=O)Nc3cccc(C)c3C)cc2C1=O
RP-LC retention time: 768 s

CCOC(=O)c1c(C)[nH]c(CCC(=O)NCc2cccs2)c1C
RP-LC retention time: 746 s

O=S(=O)(NCc1ccccc1Cl)c1ccc2c(c1)-c1oncc1CO2
RP-LC retention time: 907 s

CCCN(CC1CCOC1)C(=O)Nc1ccc(C(F)(F)F)cc1 (stereo not drawn)
RP-LC retention time: 908 s

CCOc1ccc(NC(=O)N2CCc3cn(CC)c4cccc(c34)C2)cc1
RP-LC retention time: 952 s

CN1C(=O)c2cccn2CC1C(=O)NCCc1c[nH]c2ccccc12 (stereo not drawn)
RP-LC retention time: 690 s

CN(CC1CCOC1)C(=O)NCc1cccc(F)c1 (stereo not drawn)
RP-LC retention time: 675 s

CCOC(=O)c1csc(NC(=O)Cn2nc3c(cc2=O)CCCC3)n1
RP-LC retention time: 727 s

C=CCNC(=O)c1cn(-c2cc(-c3nc(C(C)(C)C)no3)ccn2)cn1
RP-LC retention time: 879 s

Cc1ccc(S(=O)(=O)N2CCC3(CC2)CC(C)(O)CCO3)cc1F (stereo not drawn)
RP-LC retention time: 846 s

O=C(NCc1ccccc1C(F)(F)F)c1ccc2ncnc(N3CCCC3)c2c1
RP-LC retention time: 692 s

CCOC(=O)C1CCN(S(=O)(=O)c2cc(-c3c(CC)noc3NC(C)=O)ccc2OC)CC1
RP-LC retention time: 797 s

O=C1CCc2cc(NC(=O)c3ccc(F)c(F)c3)ccc2N1
RP-LC retention time: 657 s

CN1CC=C(c2noc(CCC(=O)NCc3ccc4c(c3)OCO4)n2)CC1
RP-LC retention time: 587 s

CCc1cc(=O)n(CC(=O)Nc2ccccc2CC)c(N)n1
RP-LC retention time: 610 s

O=C(c1ccsc1)N1CCCn2nc(-c3ccc(Cl)cc3)cc2C1
RP-LC retention time: 945 s

Cc1csc(C(=O)NCC(O)c2ccc(C(F)(F)F)cc2)c1 (stereo not drawn)
RP-LC retention time: 795 s

CCC(C)NC(=O)C1CCN(S(=O)(=O)c2c(C)nn(CC(=O)Nc3ccc(C)cc3)c2C)CC1 (stereo not drawn)
RP-LC retention time: 806 s

Cc1sc2ccn(CC(C)C)c(=O)c2c1C(=O)NCc1ccc(F)cc1
RP-LC retention time: 917 s
